Test results published in ChEMBL document CHEMBL1141473, “Tricyclic HIV integrase inhibitors: potent and orally bioavailable C5-aza analogs” (Bioorg Med Chem Lett, 2008).
≈ marks a conversion by molar mass, not a printed value.

Assays:
[1] = system: Human immunodeficiency virus; assay: Antiviral activity against HIV in MT2 cells in presence of 35 mg/mL human serum albumin; type: functional, organism-based; conditions: Human immunodeficiency virus 1, MT2
[2] = Half life in iv dosed rat; type: ADME, organism-based; conditions: in vivo
[3] = Aqueous solubility at pH 7.3; type: physicochemical
[4] = Total clearance in iv dosed rat; type: ADME, organism-based; conditions: in vivo
[5] = Inhibition of HIV integrase strand transfer activity; parameters: species or system Human immunodeficiency virus
[6] = Total clearance in iv dosed dog; type: ADME, organism-based, Canis lupus familiaris; conditions: in vivo
[7] = Oral bioavailability in dog; type: ADME, organism-based, Canis lupus familiaris; conditions: in vivo
[8] = Oral bioavailability in rat; type: ADME, organism-based; conditions: in vivo
[9] = system: Human immunodeficiency virus 1; assay: Antiviral activity against HIV1 3B in MT2 cells after 5 days; type: functional, organism-based; conditions: Human immunodeficiency virus 1, 3B, MT2, 120 h
[10] = Half life in iv dosed dog; type: ADME, organism-based, Canis lupus familiaris; conditions: in vivo

SMILES	EC50 [1]	half-life [2]	solubility [3]	clearance [4]	IC50 [5]	clearance [6]	bioavailability [7]	bioavailability [8]	EC50 [9]	half-life [10]
CN(C)S(=O)(=O)N(C)c1c2c(c(O)c3ncccc13)C(=O)N(Cc1ccc(F)cc1)C2	8.4 nM	54 min	4.5 µM (≈ 2 µg/mL)	3.83 mL/min/kg	62 nM	5.67 mL/min/kg	16%	13%	3.1 nM	270 min
CN(C)C(=O)C(=O)N(C)c1c2c(c(O)c3ncccc13)C(=O)N(Cc1ccc(F)cc1)C2					265 nM				31 nM	
CN(C)C(=O)N(C)c1c2c(c(O)c3ncccc13)C(=O)N(Cc1ccc(F)cc1)C2			844 µM (≈ 345 µg/mL)		71 nM				10 nM	
Cc1nnc(C(=O)NC(C)(C)c2nc(C(=O)NCc3ccc(F)cc3)c(O)c(=O)n2C)o1					27 nM				6 nM	
O=C1c2c(c(C(=O)N3CCOCC3)c3cccnc3c2O)CN1Cc1ccc(F)cc1	54 nM				50 nM					
CC(=O)N(C)c1c2c(c(O)c3ncccc13)C(=O)N(Cc1ccc(F)cc1)C2					100 nM				47 nM	
O=C1c2c(c(N3CCCS3(=O)=O)c3cccnc3c2O)CN1Cc1ccc(F)cc1	49 nM	36 min	2.8 µM (≈ 1.2 µg/mL)	25.5 mL/min/kg	13 nM	5 mL/min/kg	8.3%	4%	1.4 nM	48 min
